From US12215084B2, “2(1H)-pyridinones and their use to treat inflammatory conditions” (Conopco, Inc., priority 2019, dated 2025)
Read-outs that look alike come from different tables or passages of the source.

What was measured:
[1] = Octopirox® degradation under cool white light; assay type: physicochemical; conditions: cool white light (indoor light), 24 hours, room temperature, LCMS / UPLC-UV
Protocol: Cool White Light Treatment:
The cool white light (CWL) irradiation was carried out in an X-Rite (Macbeth) Spectra Light III chamber. CWL mode was chosen which provides stable irradiation mimicking the indoor light. The intensity of light was fixed which estimated at 6 μw/cm2 for UVA and 1.5 μw/cm^2 for UVB. The chamber temperature was equal to the room temperature ([…]). The sample was placed in a line close to the center of the chamber. After 24 hours, the sample was analyzed by LCMS (Water UPLC coupled with Quatro Micro MS)., by quantitatively measured using UPLC-UV analysis following DPS derivatization.
The separation was performed by a UPLC BEH C18 column and the mobile phase was acetonitrile/water (60/40, 0.1% formic acid) in isocratic elution. Electrospray ionization in positive mode was applied for MS scan.

[2] = background statement (well known; Clariant introduction), cited from earlier work
THP1-XBlue™ cells = experiment: Anti-inflammation efficacy in THP-1 in vitro assay (LPS co-treatment, IL-6 ELISA); assay type: cell-based; conditions: co-treated with E. coli LPS, PMA-differentiated THP1-XBlue cells, 24 hours, supernatant ELISA, LPS alone 3253.4
Protocol: The following procedure was used to test the anti-inflammation efficacy of the compound:
THP1-XBlue™ (Cat No: thpx-sp, InvivoGen) cells were cultured as suspense in RPMI 1640 medium supplemented with 10% FBS, penicillin (10 U/mL)—streptomycin (10 μg/ML). Cells were differentiated in 24-well plates at the density of 5×10^5 cells/well with 100 nM PMA for 72 hours. Cells were then co-treated with pure E. coli ipopolysaccharides (LPS) and with the compound inside the invention. After 24 hours, the supernatants were collected and measured for interleukin (IL)-6 as pro-inflammatory bio-marker using enzyme-linked immunosorbent assay (ELISA).

quantity of Octopirox® after cool white light irradiation [1] | Compound | light stability [2] | light stability ([2]; listed as piroctone olamine) | Concentration of IL-6 (THP1-XBlue™ cells; 5 μM of the compound) | Concentration of IL-6 (THP1-XBlue™ cells; 10 μM of the compound)
reduced | Cc1cc(CC(C)CC(C)(C)C)n(O)c(=O)c1.NCCO (centres unmarked) [Octopirox®, piroctone olamine] | unstable under light | light instable |  | 
 | Cc1cc(O)nc(CC(C)CC(C)(C)C)c1 (centres unmarked) [the compound] |  |  | 3083.3 pg/mL | 1405.3 pg/mL
